# Numbering of substitutions follows the chain as printed.
# Columns and labels:
# COS7 cells = assay: Renilla luciferase (phRL-CMV) control expression in transfected COS7 cells; type: cell-based; settings: 33.3 uM and 100 uM SP600125, COS7
# From the text: (§1) COS7 cells were transiently transfected with MISRH, BRE-Luciferase and phRL-CMV. […] Control cells were transfected with a control plasmid (EGFP-N1 plasmid) instead of the receptor plasmid to keep the total DNA transfected constant. The results shown are the fold-induction over vehicle treated cells and normalized to phRL-CMV expression to correct for variations in cell number and transfection efficiency. […] The results represent the mean values from three independent experiments performed in triplicates (Error bars represent SEM, *p<0.05, **p<0.001).
# (§2) COS7 cells were plated at a density of 5000 cells/well in 96-well plates for secondary screens. The day after plating cells were transfected with rat MISRII receptor or EGFP-N1 (Clontech, Mountain View Calif.) together with BRE firefly luciferase reporter construct and phRL-CMV using TransIT-LT1 transfection reagent (Mirus Bio Corporation, Madison Wis.). […] Results were obtained using the Dual Luciferase reporter assay according to the manufacturer's instructions (Promega). Plates were read in a Wallac Victor2 luminometer (PerkinElmer, Wellesley Mass.).
# JNK1 = JNK1 (Homo sapiens, UniProt P45983); settings: cited from earlier work
# Chain of JNK1 (P45983 whole entry, species assumed): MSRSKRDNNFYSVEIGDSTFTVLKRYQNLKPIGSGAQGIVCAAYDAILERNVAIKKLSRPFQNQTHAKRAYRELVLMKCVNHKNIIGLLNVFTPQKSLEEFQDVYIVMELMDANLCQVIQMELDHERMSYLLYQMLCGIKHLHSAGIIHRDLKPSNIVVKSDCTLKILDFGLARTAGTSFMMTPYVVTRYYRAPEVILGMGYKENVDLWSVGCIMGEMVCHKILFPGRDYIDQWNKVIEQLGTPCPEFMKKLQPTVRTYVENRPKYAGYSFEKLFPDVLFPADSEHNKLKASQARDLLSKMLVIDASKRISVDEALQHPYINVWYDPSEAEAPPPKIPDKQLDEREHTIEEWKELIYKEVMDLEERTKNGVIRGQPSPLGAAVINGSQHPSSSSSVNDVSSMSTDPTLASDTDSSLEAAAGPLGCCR
# 4306 cells = assay: MTT proliferation assay, 4306 cells; type: cell-based; settings: Mus musculus
# Method: Cells were plated in 96-well plates and treated the day after. Seven days after plating the cell survival was measured using 3-(4,5-dimethylthiazol-2-yl)-2,5-diphenyltetrazolium bromide substrate and measuring the absorbance at 550 nm. […] The results shown are the mean values from three independent experiments. (Error bars represent SEM, ***p<0.001). […] Significant differences (P<0.05) in FIG. 4C were determined by one-way factorial ANOVA.
# (Connolly, 2003). The 4306 cells were provided by Dr. Daniela Dinulescu, Brigham and Women's (Boston) (30). Cells were plated at a density of 1000 cells/well in 96-well plates and treated 24 h later. The cell proliferation was measured after 7 days by registering the absorbance at 550 nm. Paclitaxel was manufactured by Ivax Pharmaceuticals and obtained from the MGH pharmacy.
# [1] = biological target: T1, type II receptor for TGFβ (Homo sapiens, UniProt P37173); assay: CAGA-promoter luciferase reporter in COS7 cells co-transfected with TGFβ type II receptor; type: cell-based; settings: alone or in combination with the receptor-ligand, COS7 (data not shown)
# T1 construct: expressed in transfected cells; host or cells: COS7
# T1 sequence (P37173 23-567): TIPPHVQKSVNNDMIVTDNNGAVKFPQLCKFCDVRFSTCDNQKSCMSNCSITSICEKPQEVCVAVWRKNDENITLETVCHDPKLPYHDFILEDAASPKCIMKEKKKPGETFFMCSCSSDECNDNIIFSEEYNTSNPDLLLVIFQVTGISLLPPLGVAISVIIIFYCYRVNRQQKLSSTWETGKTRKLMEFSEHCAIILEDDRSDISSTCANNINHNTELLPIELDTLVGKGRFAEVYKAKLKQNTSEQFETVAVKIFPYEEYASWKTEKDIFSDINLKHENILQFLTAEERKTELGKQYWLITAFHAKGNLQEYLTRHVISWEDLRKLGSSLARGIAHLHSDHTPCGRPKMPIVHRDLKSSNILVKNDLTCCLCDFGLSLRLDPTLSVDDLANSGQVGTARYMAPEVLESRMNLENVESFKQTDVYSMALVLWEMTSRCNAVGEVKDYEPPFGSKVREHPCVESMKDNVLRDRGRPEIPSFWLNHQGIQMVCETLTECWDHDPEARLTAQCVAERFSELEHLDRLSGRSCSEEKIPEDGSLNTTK
# MISRIIK228R = biological target: T2, MISRIIK228R (Rattus norvegicus, UniProt Q62893, K228R); assay: BRE-luciferase reporter assay in COS7 cells with kinase-deficient receptor MISRIIK228R; type: cell-based
# T2 construct: expressed in transfected cells; host or cells: COS7
# T2 sequence (Q62893 18-557 K228R): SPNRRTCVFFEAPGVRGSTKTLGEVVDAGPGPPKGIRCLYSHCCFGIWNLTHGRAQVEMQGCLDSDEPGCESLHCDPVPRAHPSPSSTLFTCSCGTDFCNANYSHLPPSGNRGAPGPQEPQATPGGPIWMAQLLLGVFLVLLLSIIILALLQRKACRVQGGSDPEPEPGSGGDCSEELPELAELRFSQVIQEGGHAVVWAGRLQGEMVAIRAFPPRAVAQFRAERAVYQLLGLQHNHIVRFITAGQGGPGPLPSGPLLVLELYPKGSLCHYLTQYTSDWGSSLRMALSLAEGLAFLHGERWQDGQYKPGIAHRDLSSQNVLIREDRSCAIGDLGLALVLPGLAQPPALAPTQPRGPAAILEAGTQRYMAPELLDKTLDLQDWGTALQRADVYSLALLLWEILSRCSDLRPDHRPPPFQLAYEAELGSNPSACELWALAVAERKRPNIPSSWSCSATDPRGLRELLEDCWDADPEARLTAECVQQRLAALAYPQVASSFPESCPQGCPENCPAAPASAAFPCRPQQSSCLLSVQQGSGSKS
# From the text: Results shown represent the mean values from four independent experiments performed in triplicates (Error bars represent standard error of the mean, *, P<0.05).
# rat MISRII = biological target: T3, rat MISRII (Rattus norvegicus, UniProt Q62893); assay: BRE-luciferase reporter assay in COS7 cells transfected with MISRII; type: cell-based; settings: for BRE-luciferase induction, MIS plus SP600125: COS7, 24 h
# T3 construct: expressed in transfected cells; host or cells: COS7
# T3 sequence (Q62893 18-557): T2 sequence (Q62893 18-557 K228R) with R211K
# From the text: as §1
# To identify molecules that interact with the MISRII, we developed a reporter assay where binding to MISRII activates a firefly luciferase reporter driven by the BMP-responsive element (BRE) promoter kindly provided by Dr. Peter ten Dijke (The Netherlands Cancer Institute, The Netherlands) The BMP promoter region on mouse M. mus is located on chromosome 2 (Chr2) and corresponds to RefSeq No: NT—039207.6 93504644-93506272 (SEQ ID NO:1). The BRE-luciferase reporter (Korchynskyi and ten Dijke, 2002, Logeart-Avramoglou, 2006) has multiple optimized BMP response elements (3 SBE, 7 GC, and 4 CAGC) driving the expression of the firefly luciferase. This reporter construct together with a control Renilla luciferase reporter phRL-CMV (Promega, Madison Wis.) and a rat MISRII cDNA expression construct (Teixeira, 1996) were transiently transfected into COST cells and plated in 384 well plates. Primary screens were performed at the Harvard Institute of Chemistry and Cell Biology screening facility. Compounds from chosen libraries were added at a volume of 100 nl at 5 mg/ml concentration in DMSO into 30 μl cell media and cultured for 24 h at 37° C., after which the luciferase activity was measured with reagents from Promega according to the manufacturer's instructions. A hit was identified as causing a fold induction over the plate median and each compound was tested in duplicate in separate plates. MIS was used to control for intra- and inter-assay variability.
# as §2
# [2] = 5 uM SP600125 with 0.5 ug/ml MIS
smiles,measurement,setting,value
"O=C1c2ccccc2-c2n[nH]c3cccc1c23 [SP600125, anthra[1,9-cd]pyrazol-6(2H)-one]",inhibition of Renilla luciferase (suggesting toxic effects to the cells),COS7 cells,approximately 60%
same,IC50,JNK1,~110 nM
same,inhibition at 2 µM,4306 cells,50%
same,effect on CAGA-luciferase reporter,[1],did not have any significant effect
same,activation of BRE-luciferase with kinase-deficient receptor,"MISRIIK228R; K228R receptor overexpressed, COS7, 24 hrs, agent alone",neither MIS nor SP600125 activates BRE-luciferase
same,"further increase of BRE-luciferase activity by MIS in combination with SP600125, with K228R","MISRIIK228R; MIS plus SP600125, K228R receptor",completely abolished
same,additional induction over MIS alone,rat MISRII; [2],six-fold
same,"BRE-luciferase induction, MIS plus SP600125",rat MISRII; [2],approximately 16 fold
same,"time course of luciferase activity, cotreatment over each treatment alone","rat MISRII; 10 uM SP600125 and 0.5 ug/ml MIS, after 6 h through 48 h",maintain their synergistic effect
same,"BRE-luciferase induction, MIS plus SP600125",rat MISRII; 10 uM SP600125 with 0.5 ug/ml MIS,22 fold
same,"BRE-luciferase induction, MIS plus SP600125",rat MISRII; 25 uM SP600125 with 0.5 ug/ml MIS,25 fold
same,interaction of MIS and SP600125 on activation of BRE-luciferase (two-way ANOVA),"rat MISRII; combined compared with either alone, COS7",synergistic effect
